Measured values from US9839632B2, “Methods and compositions using 4-amino-2-(2,6-dioxo-piperidine-3-yl)-isoindoline-1,3-dione for treatment and management of central nervous system cancers” (CELGENE CORPORATION, priority 2013, dated 2017).

Experiments:
[1] = test system: primary murine microglia cells; assay: Phagocytosis assay, primary murine microglia cells; format: cell-based; details: 3 or 10 ug/ml, 48 hours, P<0.05 vs control
Experimental: Phagocytosis assay: The impact of 4-amino-2-(2,6-dioxo-piperidine-3-yl)-isoindoline-1,3-dione on the phagocytic activity of macrophages was assessed in primary microglial cells and human monocyte cells (U937). The cells were cultured in complete medium for 4 days. They were then harvested and resuspended in Opti-MEM medium at 10^6 cells/ml and seeded in a 96 well plate at 100,000 viable cells/well. The experimental wells were treated with 4-amino-2-(2,6-dioxo-piperidine-3-yl)-isoindoline-1,3-dione 3 or 10 ug/ml. After 48 hours of treatment, the culture medium was quickly replaced with 100 ul of pHrodo BioParticles suspension (Life technologies and the cells were incubated in the suspension at 37° C. for 2-3 hours. Following incubation, the plates were scanned at 550 nm/600 nm (excitation/emission) using fluorescence plate reader. The fluorescence activity reflects the phagocytic activity of the macrophages. The impact of 4-amino-2-(2,6-dioxo-piperidine-3-yl)-isoindoline-1,3-dione treatment (% effect) was calculated as a fraction of the phagocytic activity in the positive control wells. Wan, C. P.; et al., J. Immunol. Methods, 1993, 162, pp. 1-7.

[2] = test system: macrophages and NK cells in the CNS lymphoma microenvironment; assay: Immunohistochemistry/immunofluorescence of CNS lymphoma microenvironment, OCI-LY10 model; format: in vivo, athymic mice; details: P<0.05 vs control
From the text: Immunohistochemistry (“IHC”) assessment for macrophages: Paraffin sections (10 μm thick) were fixed, blocked, and immunostained with the appropriate antibody: Iba-1 (BD Biosciences) for macrophages, Ym1 (Stemcell Technologies) as a marker for M2 polarization, iNOS (Calbiochem) as a marker for M1 polarization. Aperio ScanScope XT slide scanner and image analysis system (Aperio Spectrum, Vista, Calif.) were used for quantitative assessment of macrophages. Three equal-size (0.4 mM2) fields in macrophage-dense areas were selected in the contralateral brain and the tumor for counting. Data were shown as an average of the three fields.
Immunofluorescence for natural killer cells: Frozen sections (10 μm thick) were permeabilized with PBS-0.2% Triton X-100 for 5 min. After blocking with PBS-5% goat serum-0.02% Triton X-100 for 45 mins at 37° C., the sections were incubated overnight at 4° C. with Rat monoclonal CD335 antibody (a marker for NK cells, 1:200, Biolegend). After washing, sections were incubated with the Alexa Fluor 594 Goat anti-Rat IgG secondary antibody (1:1000, Life Technologies) at 37° C. for 1.5 h. Finally, Vectashield H-1200 mounting medium with DAPI (Vector Laboratories) was used to stain the nuclei. Images were obtained on a Zeiss LSM 510 META confocal microscope. Six equal-size (0.2 mM^2) fields in NK-dense areas were selected in the tumor for taking pictures. Fluorescence intensity data were generated by Zeiss LSM 510 and shown as an average of six fields.
Statistical analysis: One-way ANOVA was used to compare the difference between the groups at each time point. Two-way repeated measures ANOVA was used to analyze the interaction between the time and treatment. Survival analysis was performed by Kaplan Meier method. Kaplan Meier survival curves were generated using Prism4 software and the statistical difference between curves was derived with a log-rank test. P<0.05 was considered significant.

[3] = test system: OCI-LY10 B lymphoma cells; assay: Orthotopic murine CNS lymphoma model, OCI-LY10 (bioluminescence tumor growth, survival); format: in vivo, athymic mice; details: for median survival: OCI-LY10 model; for in vivo tumor growth (luminescence signal) vs control: P<0.05, n=8
Experimental: Animal and housing: Female athymic mice (8-10 weeks old and weighing 20-25 g at the beginning of the study) were purchased from Harlan laboratories. They were housed in a temperature-controlled sterilized room (23±2° C.) with a 12-h light/dark cycle and free access to food and water throughout the study. Animal use was approved by Mayo Foundation Institutional Animal Use and Care Committee and was in accordance with NIH Guide for the Care and Use of Laboratory Animals.
Orthotopic murine CNS lymphoma models: Two murine CNS lymphoma models were created by intracerebral injection of 2.5×10^4 luciferase-transfected Raji or 1×10^5 luciferase-transfected OCI-LY10 B lymphoma cells in athymic mice under anesthesia using a stereotactic platform. Eight-week-old athymic mice underwent minimum 7-day acclimation/quarantine prior to surgery. Surgery was performed in a laminar flow hood under sterile conditions. Tylenol 300 mg/kg PO was given for analgesia 24 hours before the surgery continuing 48 hours postoperatively. Anesthesia was achieved by inhalation of 1-2% isoflurane. After the mouse became well anesthetized, it was placed in the Kopf stereotactic instrument. A small amount of BNP antibiotic cream (a mixture of Bacitracin, Neomycin and Polymyxin) was smeared on its eyes to prevent infection and corneal damage during surgery. A strip of soft fabric was placed over the mouse's body and tail to prevent excessive heat loss during surgery. The scalp area was cleaned with a 2% solution of Betadine and dried with cotton tipped applicator. A midline sagittal incision was made in the scalp. A small burr hole was drilled in the left skull with a surgical drill (Kopf) or a Dremel drill according to the coordinates (AP: 0.5 mm, LM: 2.5 mm) as determined by reference to the mouse brain atlas by Franklin and Paxinos. Paxinos, 2001. The dura mater was surgically exposed, and a 10 μl-Hamilton syringe with a 26S-gauge beveled needle was lowered into the left cerebral hemisphere up to the depth of 3 mm and 5 μl of tumor cells was slowly infused (0.5 μl/min). The needle was left in place for 5 minutes to prevent reflux and then was slowly removed. The skin was closed with wound clips. The mice recovered from anesthesia and surgery in a warm environment and were not returned to their cages until motor activity returned. Cages were placed on top of a heating pad to minimize the loss of body heat during the recovery. The mice were monitored postoperatively at least twice a day for 5 days or until recovery was complete.
Bioluminescence imaging of mouse: After intracerebral injection of lymphoma cells, all the mice were subjected to bioluminesence imaging (“BLI”) twice a week starting at day-4 post-intracerebral injection to monitor the real-time in vivo tumor growth. BLI was conducted using a Xenogen Lumina optical imaging system (Caliper Life Sciences, Hopkinton, Mass.). Mice were anesthetized with isofluorane before intraperitoneal injections of luciferin at a dose of 150 mg/kg, providing a saturating substrate concentration for luciferase enzyme. Peak luminescent signals were recorded 10 minutes after luciferin injection. Regions of interest encompassing the intracranial area of signal were defined using Living Image software (Xenogen), and the total photons/s/steradian/cm^2 was recorded.
In vivo preclinical evaluation of 4-amino-2-(2,6-dioxo-piperidine-3-yl)-isoindoline-1,3-dione in murine CNS lymphoma models: Mice were imaged 4 days after intracerebral injection and were distributed among different treatment groups with equivalent average BLI signal. Real time tumor growth was monitored by BLI. Tumor growth and survival data were analyzed for statistical difference between the groups. Mice were assigned to four experimental groups and one vehicle control group in Raji model. Mice in experimental groups received 4-amino-2-(2,6-dioxo-piperidine-3-yl)-isoindoline-1,3-dione 0.3 mg/kg, 3 mg/kg, 10 mg/kg, or 30 mg/kg by oral gavage daily for 28 days. […]

[4] = listed as 4-amino-2-(2,6-dioxo-piperidine-3-yl)-isoindoline-1,3-dione

Nc1cccc2c1C(=O)N(C1CCC(=O)NC1=O)C2=O (centres unmarked) [Pomalidomide, 4-amino-2-(2,6-dioxo-piperidine-3-yl)-isoindoline-1,3-dione]
phagocytic activity [1]: significantly increased
CD335 positive NK cells in CNS tumors [2]: significantly increased
Ym1 expression (M2-polarized macrophages) in tumor [2]: significantly decreased
iNOS activity (M1-polarized macrophages) in tumor [2]: increased
CD335 positive NK cells in CNS tumors [2, 4]: significant increase
Ym1 expression (M2-polarized macrophages) in tumor [2, 4]: significant decrease
iNOS activity (M1-polarized macrophages) in tumor [2, 4]: significant increase
brain macrophages (Iba-1 positive cells) ([2]; contralateral brain and tumor): significantly increased
median survival ([3]; 3 mg/kg oral gavage daily for 28 days): 32 days
median survival ([3]; 10 mg/kg oral gavage daily for 28 days): 37 days
median survival ([3]; 30 mg/kg oral gavage daily for 28 days): 40 days
in vivo tumor growth (luminescence signal) vs control ([3]; OCI-LY10 model, 3, 10 and 30 mg/kg groups): significantly slower
in vivo tumor growth (luminescence signal) vs control ([3]; OCI-LY10 model, 3, 10 and 30 mg/kg groups, listed as 4-amino-2-(2,6-dioxo-piperidine-3-yl)-isoindoline-1,3-dione): reduction of tumor growth
survival, Kaplan-Meier analysis vs control ([3]; OCI-LY10 model, 3, 10 and 30 mg/kg groups, p<0.05, n=8): prolongation of survival
